Source: patent publication US20230357239A1, “PYRIDO[2,3-D]PYRIMIDIN-4-AMINES AS SOS1 INHIBITORS” (Bayer Aktiengesellschaft, priority 2020, published 2023)
pIC50: −log10 of the molar value.

Molecular target: human SOS1 (SOS1) with human K-RasG12C (Homo sapiens (Human), UniProt Q07889)
Experiment: hK-RasG12C interaction assay with hSOS1 (HTRF)
Type: binding
Conditions: GST-hK-RasG12C and His-hSOS1, 60 min incubation at 20° C, mean, read-out: K-RasG12C - SOS interaction assay IC50 - [mol/l] (mean)

Sequence of human SOS1 (SOS1) with human K-RasG12C (Q07889 564-1049): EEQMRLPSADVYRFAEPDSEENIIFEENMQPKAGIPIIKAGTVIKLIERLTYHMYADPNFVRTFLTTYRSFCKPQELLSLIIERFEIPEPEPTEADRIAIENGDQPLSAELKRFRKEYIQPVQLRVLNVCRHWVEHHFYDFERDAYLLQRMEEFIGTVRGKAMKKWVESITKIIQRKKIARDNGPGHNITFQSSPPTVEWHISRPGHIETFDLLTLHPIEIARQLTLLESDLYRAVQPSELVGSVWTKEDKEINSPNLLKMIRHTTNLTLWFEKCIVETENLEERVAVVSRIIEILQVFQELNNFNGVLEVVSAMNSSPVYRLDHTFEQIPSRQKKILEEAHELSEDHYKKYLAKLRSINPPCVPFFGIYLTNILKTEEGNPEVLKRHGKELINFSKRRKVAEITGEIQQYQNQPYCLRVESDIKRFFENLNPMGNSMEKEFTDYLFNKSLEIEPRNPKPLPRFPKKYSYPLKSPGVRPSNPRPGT

CC(=O)N1CC2(C1)CN(c1cc3c(N[C@H](C)c4cccc(C(F)(F)F)c4C)nc(C)nc3nc1C(F)(F)F)C2 [Example 71, 1-{6-[2-methyl-4-({(1R)-1-[2-methyl-3-(trifluoromethyl)phenyl]ethyl}amino)-7-(trifluoromethyl)pyrido[2,3-d]pyrimidin-6-yl]-2,6-diazaspiro[3.3]heptan-2-yl}ethan-1-one]
pIC50: 8.24
